From US11214803B2, “Modulators of YAP1 expression” (Ionis Pharmaceuticals, Inc., priority 2019, dated 2022)
Strand notation (5' to 3'): a small letter for the sugar, then the base; units joined by * are phosphorothioate-linked, units joined directly phosphodiester-linked; [ ] holds rarer units or linkages, { } end groups; capitals alone tell only the bases. e = 2'-O-(2-methoxyethyl) (MOE); k = constrained ethyl (cEt); [5mC] = 5-methylcytosine; d = 2'-deoxy (DNA); m = 2'-O-methyl

System: Yap1 mRNA
Assay: Antisense inhibition of human Yap1 in SNU-449 cells by modified oligonucleotides, single dose (Example 5, RTS36584)
Format: cell-based
Summary of the method: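 Free uptake, 2,000 nM, ~48 h, SNU-449 at 10,000 cells/well. Read-out: qRT-PCR (RTS36584), RIBOGREEN-normalised, expressed as % UTC. Asterisk = oligo hits amplicon region.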

[1] = Table 51, Yap1 mRNA remaining as percent of untreated control (UT), SNU-449 cells, single dose
[2] = Table 39, SNU-449 cells, 10,000 cells per well, free uptake, 2,000 nM oligonucleotide, approx. 48 hours, RTS36584, normalized to RIBOGREEN, Yap1 mRNA relative to untreated control
[3] = Table 48, Yap1 mRNA level relative to untreated control, modified oligonucleotides targeting SEQ ID NO.: 1 and 2
[4] = Table 43 experiment, SNU-449 cells, 10,000 cells per well, free uptake, 2,000 nM, approximately 48 hours, RTS36584, Yap1 mRNA normalized to RIBOGREEN, relative to untreated control cells
[5] = Table 44 experiment, SNU-449 cells, 10,000 cells per well, free uptake, 2,000 nM, approximately 48 hours, RTS36584, Yap1 mRNA normalized to RIBOGREEN, relative to untreated control cells
[6] = Table 46, Yap1 mRNA as percent of untreated control, SNU-449 cells, single dose
[7] = Table 42 (separate experiment), SNU-449 cells, 10,000 cells per well, free uptake, 2,000 nM modified oligonucleotide, approximately 48 hours, RTS36584, normalized to RIBOGREEN, Yap1 mRNA relative to untreated control cells
[8] = Table 45, Yap1 mRNA as percent of untreated control, SNU-449 cells, single dose
[9] = Yap1 mRNA, percent of untreated control, modified oligonucleotides targeting SEQ ID NO: 1 and 2, Table 47
[10] = Table 49, Yap1 mRNA level relative to untreated control, modified oligonucleotides targeting SEQ ID NO.: 1 and 2

## 1197257 (antisense kT*k[5mC]*kA*dG*mA*dT*dT*dT*dA*dG*dG*dA*dT*kG*k[5mC]*kA) [Compound 1197257]
[1]
  YAP1 (% UT): 20 % UT

## 1198448 (kA*dG*dT*dA*dA*dG*dG*dT*dT*dT*d[5mC]*k[5mC]*e[5mC]*kA*eG*kA) [Compound 1198448]
[2]
  YAP1 (% UTC): 36 % UTC

## 1198313 (kA*kG*k[5mC]*dA*d[5mC]*dT*dT*dT*dT*dA*d[5mC]*dA*kT*eT*kA*eG; antisense) [Compound 1198313]
[3]
  YAP1 (% UT): 31 % UT

## 1198319 (k[5mC]*kT*kT*dT*dG*dG*dA*dA*dG*dA*dT*d[5mC]*kT*eG*kA*eA; antisense) [Compound 1198319]
[3]
  YAP1 (% UT): 47 % UT

## 1197240 (antisense k[5mC]*kT*kG*dA*mG*dG*dT*dA*dT*dA*dA*d[5mC]*dT*kG*kG*kG) [Compound 1197240]
[1]
  YAP1 (% UT): 58 % UT

## 1198261 (kG*kT*dA*dA*dT*dA*dT*dT*dG*d[5mC]*dA*eA*eT*e[5mC]*kT*kG; antisense) [Compound 1198261]
[4]
  YAP1 (% UTC): 54 % UTC

## 1198510 (k[5mC]*kT*d[5mC]*dT*dT*dA*dT*dA*dT*dG*dG*eT*kT*eT*kT*eG; antisense) [Compound 1198510]
[5]
  YAP1 (% UTC): 8 % UTC

## 1198824 (kA*kG*dG*dT*dA*dT*dA*dA*d[5mC]*dT*dG*kG*eG*k[5mC]*eA*kA; antisense) [Compound 1198824]
[6]
  YAP1 (% UT): 72 % UT

## 1198206 (kA*kT*dA*dT*dG*dG*dA*dA*dA*dT*dT*eG*eT*e[5mC]*kT*k[5mC]; antisense) [Compound 1198206]
[7]
  YAP1 (% UTC): 43 % UTC

## 1198922 (kG*kG*dA*dA*dG*dA*dT*d[5mC]*dT*dG*dA*kA*dA*k[5mC]*dT*k[5mC]; antisense) [Compound 1198922]
[8]
  YAP1 (% UTC): 59 % UTC

## 1197209 (antisense kT*kG*kT*dA*dA*dT*dA*dT*dT*dG*d[5mC]*dA*dA*kT*k[5mC]*kT) [Compound 1197209]
[9]
  YAP1 (% UT): 33 % UT

## 1198953 (kG*kT*dA*dA*dT*dA*dT*dT*dG*d[5mC]*dA*kA*dT*k[5mC]*dT*kG; antisense) [Compound 1198953]
[8]
  YAP1 (% UTC): 58 % UTC

## 1198290 (kT*kG*kG*dA*dA*dA*dT*dT*dG*dT*d[5mC]*dT*k[5mC]*eA*kT*eG; antisense) [Compound 1198290]
[3]
  YAP1 (% UT): 15 % UT

## 1097238 (antisense kA*kT*kT*dG*d[5mC]*dA*dA*dT*d[5mC]*dT*dG*dT*d[5mC]*kT*kG*kA) [Compound 1097238]
[9]
  YAP1 (% UT): 77 % UT

## 1200796 (kT*kT*kA*dG*dA*mG*dT*dA*dT*dG*dT*dG*dG*k[5mC]*kA*kA; antisense) [Compound 1200796]
[1]
  YAP1 (% UT): 15 % UT

## 1074798 (kG*k[5mC]*kT*dT*dT*dG*dG*dA*dA*dG*dA*dT*d[5mC]*kT*kG*kA) [Compound 1074798]
[9]
  YAP1 (% UT): 19 % UT

## 1197192 (antisense kA*kT*kA*dG*dT*dG*d[5mC]*dT*dT*dT*dG*dG*dA*kA*kG*kA) [Compound 1197192]
[9]
  YAP1 (% UT): 39 % UT

## 1198799 (antisense k[5mC]*eT*kA*dA*dG*dT*dA*dA*dG*dG*dT*dT*eT*e[5mC]*k[5mC]*k[5mC]) [Compound 1198799]
Table 40 (separate experiment), SNU-449 cells, 10,000 cells per well, free uptake, 2,000 nM oligonucleotide, approx. 48 hours, RTS36584, normalized to RIBOGREEN, Yap1 mRNA relative to untreated control
  YAP1 (% UTC): 18 % UTC

## 1198365 (k[5mC]*kT*kA*dA*dG*dT*dA*dA*dG*dG*dT*dT*kT*e[5mC]*k[5mC]*e[5mC]; antisense) [Compound 1198365]
[10]
  YAP1 (% UT): 13 % UT

## 1198371 (kA*dT*dT*dG*dT*d[5mC]*dT*d[5mC]*dA*dT*dG*k[5mC]*e[5mC]*kT*eT*kA; antisense) [Compound 1198371]
[2]
  YAP1 (% UTC): 15 % UTC

## 1198490 (antisense kT*kT*dT*dG*dG*dA*dA*dG*dA*dT*d[5mC]*eT*kG*eA*kA*eA) [Compound 1198490]
[5]
  YAP1 (% UTC): 53 % UTC

## 1095379 (antisense kA*d[5mC]*dT*dG*dA*dG*dG*dT*dA*dT*dA*kA*e[5mC]*kT*eG*kG) [Compound 1095379]
[2]
  YAP1 (% UTC): 52 % UTC

## 1198211 (kA*kT*dT*dA*dG*dA*dG*dT*dA*dT*dG*eT*eG*eG*k[5mC]*kA; antisense) [Compound 1198211]
[7]
  YAP1 (% UTC): 19 % UTC

## 1198360 (kA*kA*k[5mC]*dT*dT*dT*dA*dA*dA*dG*dT*dG*kT*eA*kT*eG; antisense) [Compound 1198360]
[10]
  YAP1 (% UT): 74 % UT

## 1198649 (kG*kA*dG*dG*dT*dA*dT*dA*dA*d[5mC]*dT*dG*kG*eG*k[5mC]*eA) [Compound 1198649]
[7]
  YAP1 (% UTC): 27 % UTC

## 1198275 (kT*kA*dA*dG*dG*dT*dT*dT*d[5mC]*d[5mC]*d[5mC]*eA*eG*eA*kT*kT; antisense) [Compound 1198275]
[4]
  YAP1 (% UTC): 52 % UTC

## 1198602 (antisense kA*kT*kA*dT*dT*dG*d[5mC]*dA*dA*dT*d[5mC]*dT*kG*kT*k[5mC]*eT) [Compound 1198602]
Table 50, Yap1 mRNA remaining as percent of untreated control (UT), SNU-449 cells, single dose
  YAP1 (% UT): 29 % UT

## 1198700 (kT*kA*dA*dA*dG*dT*dG*dT*dA*dT*dG*dT*k[5mC]*eA*kG*eA; antisense) [Compound 1198700]
[7]
  YAP1 (% UTC): 26 % UTC

## 1198301 (kT*k[5mC]*kT*dA*dT*dA*dT*dT*dA*dG*dA*dG*kT*eA*kT*eG; antisense) [Compound 1198301]
[3]
  YAP1 (% UT): 43 % UT

## 1197268 (kA*kA*kG*dT*mG*dT*dA*dT*dG*dT*d[5mC]*dA*dG*kA*kA*kG) [Compound 1197268]
[1]
  YAP1 (% UT): 25 % UT

## 1076186 (kA*kT*kT*dT*dA*dG*dG*dA*dT*dG*d[5mC]*dA*dT*kG*kG*kT) [Compound 1076186]
[9]
  YAP1 (% UT): 31 % UT

## 1198974 (kA*kG*dA*d[5mC]*dT*dA*dA*dG*dT*dA*dA*kG*dG*kT*dT*kT; antisense) [Compound 1198974]
[8]
  YAP1 (% UTC): 73 % UTC

## 1198353 (kA*kG*kT*dG*dT*dA*dT*dG*dT*d[5mC]*dA*dG*kA*eA*kG*eA; antisense) [Compound 1198353]
[10]
  YAP1 (% UT): 8 % UT

## 1198540 (antisense kA*kG*dA*d[5mC]*dT*dA*dA*dG*dT*dA*dA*eG*kG*eT*kT*eT) [Compound 1198540]
[5]
  YAP1 (% UTC): 51 % UTC

## 1198947 (k[5mC]*kA*dA*d[5mC]*dT*d[5mC]*dT*dT*dA*dT*dA*kT*dG*kG*dT*kT; antisense) [Compound 1198947]
[8]
  YAP1 (% UTC): 88 % UTC

## 1198885 (k[5mC]*kT*dA*dA*dG*dT*dA*dA*dG*dG*dT*kT*eT*k[5mC]*e[5mC]*k[5mC]; antisense) [Compound 1198885]
[6]
  YAP1 (% UT): 41 % UT

## 1200850 (kT*kA*kA*dT*dA*mU*dT*dG*d[5mC]*dA*dA*dT*d[5mC]*kT*kG*kT; antisense) [Compound 1200850]
Table 52, Yap1 mRNA, modified oligonucleotides targeting SEQ ID NO: 1 and 2
  YAP1 (% UT): 83 % UT

## 1198478 (antisense kA*kA*d[5mC]*dA*d[5mC]*dT*dG*dA*dG*dG*dT*eA*kT*eA*kA*e[5mC]) [Compound 1198478]
[5]
  YAP1 (% UTC): 60 % UTC

## 1197297 (GTGCUTTGGAAGATCT; cEt/MOE gapmer, phosphorothioate, 5-methylcytosine, chemistry not fully specified) [Compound 1197297]
[1]
  YAP1 (% UT): 25 % UT

## 1198385 (kA*dT*dA*dT*dT*dA*dG*dA*dG*dT*dA*kT*eG*kT*eG*kG; antisense) [Compound 1198385]
[2]
  YAP1 (% UTC): 30 % UTC

## 1198832 (kG*k[5mC]*dA*d[5mC]*dT*dT*dT*dT*dA*d[5mC]*dA*kT*eT*kA*eG*kG; antisense) [Compound 1198832]
[6]
  YAP1 (% UT): 20 % UT

## 1198650 (kA*kA*d[5mC]*dA*d[5mC]*dT*dG*dA*dG*dG*dT*dA*kT*eA*kA*e[5mC]) [Compound 1198650]
[7]
  YAP1 (% UTC): 88 % UTC

## 1197185 (antisense kA*kA*kG*d[5mC]*dA*d[5mC]*dT*dT*dT*dT*dA*d[5mC]*dA*kT*kT*kA) [Compound 1197185]
[9]
  YAP1 (% UT): 55 % UT

## 1198896 (kT*kG*dG*dA*dA*dA*dT*dT*dG*dT*d[5mC]*kT*d[5mC]*kA*dT*kG; antisense) [Compound 1198896]
[8]
  YAP1 (% UTC): 59 % UTC

## 1198202 (kG*kA*dA*dA*dT*dT*dG*dT*d[5mC]*dT*d[5mC]*eA*eT*eG*k[5mC]*k[5mC]; antisense) [Compound 1198202]
[7]
  YAP1 (% UTC): 14 % UTC

## 1198393 (kT*dT*dA*d[5mC]*dA*dT*dT*dA*dG*dG*dA*kA*e[5mC]*kA*eA*kG; antisense) [Compound 1198393]
[2]
  YAP1 (% UTC): 58 % UTC
